Experimental data reported in US20210330760A1, “METHODS AND MATERIALS FOR TREATING OSTEOARTHRITIS” (University of Pittsburgh - Of the Commonwealth System of …, priority 2020, published 2021).
Entries after “also recorded” stand apart in the source; their conditions may differ.

Key:
Type in all cases: in vivo
Details in all cases: aged male mice (21-24 months), daily subcutaneous BAPN for 4 weeks, vs saline
[1] = system: medial tibial cartilage of aged male C57/BL6 mice; assay: BAPN daily injection in aged mice, cartilage histology (OARSI score)
Procedure: (§1) Aged male C57/BL6 mice (21-24 months; body mass) received daily subcutaneous injections of either saline, as a control, or BAPN (290 μg/μ1 in saline) for 4 weeks every day. Volume of the injection (40-80 μl) was determined based on mice body mass (m) with following protocol: 40 μl (18.45 g≤m≤23.73 g), 50 μl (23.73 g≤m≤29.00 g), 60 ul (29.00 g≤m≤34.27 g), 70 μl (34.27 g≤m≤39.55 g), 80 μl (39.55 g≤m≤44.82 g). Mice were weighed every other day beginning on day 0 and ending on day 28 to ensure proper dosage of BAPN.
Mice knee joints and human cartilage samples were fixed in 4% paraformaldehyde overnight at 4° C., and decalcified in 20% ethylene diamine tetra acetic acid solution for 10 days. Decalcified paraffin sections (5 μm thickness) were prepared from central region of the mice knee joints in the frontal plane in accordance with the OARSI recommendation (Glasson, et al., Osteoarthritis Cartilage 18 Suppl 3, S17-23 (2010)). Decalcified paraffin sections from human cartilage specimen were also prepared. […] The OARSI scoring system, consisting of six grades and four stages on a scale from 0 (normal) to 24 (severe cartilage lesion), was used for semi-quantitative evaluation of cartilage lesion severity (Pritzker, et al., Osteoarthritis Cartilage 14, 13-29 (2006)). The most severe score was evaluated as the maximum OARSI score. […]

α-Klotho = assay: BAPN daily injection in aged mice, α-Klotho immunofluorescence in chondrocytes
Procedure: as §1
Immunofluorescence analysis for tissue section and/or cell-seeded pAAm gel was performed to determine the signal intensity of type II collagen, α-Klotho, Lamin A/C, and Lamin B2 in accordance with established protocol (Sahu, et al., 2018, supra). Briefly, after a triple wash by PBS, cells were permeabilized with 0.1% triton-X (Fluka 93420) for 15 minutes, followed by a one-hour blocking step using 0.1% triton-X with 3% Bovine Serum Albumin (BSA, Sigma A7906) in PBS. The cells were then incubated with primary antibodies for overnight at 4° C. A similar process was followed for the decalcified tissue paraffin. […]
Slides were imaged using a Zeiss Observer Z1 semi-confocal microscope. […] All images for quantitative analysis in a given experiment were taken under the same imaging conditions. Fluorescence intensity was quantified using Image J

[2] = system: chondrocyte nuclear morphology; assay: BAPN daily injection in aged mice, chondrocyte nuclear morphology (CellProfiler, PCA)
Procedure: as §1
DAPI and F-actin images were obtained at 63× and 20× magnification using a Zeiss Observer Z1 semi-confocal microscope, respectively. Afterwards, image processing and morphome feature extraction were performed using CellProfiler software (v4.0, The Broad Institute) (Carpenter et al., Genome Biol 7, R100 (2006)). Fifty-three shape features of cell and nuclei were determined using the “identify primary objects” followed by the “measure object size shape” and “export to spread sheet” module. Principal Component Analysis (PCA) was performed for the data reduction identifying the principal components (PCs) that represent the differences in the cellular and nuclear morphology. To determine variables of cellular and nuclear shape contributing to PCs, loading matrix, a correlation between the original variable and PCs, were extracted.

Structure (SMILES): N#CCCN [BAPN, β-aminopropionitrile]
- cartilage integrity (OARSI score) [1]: improves cartilage integrity
- α-Klotho expression in chondrocytes (α-Klotho): significantly increased α-Klotho levels; also recorded: increased α-Klotho expression; also recorded: improves α-Klotho expression
- nuclear eccentricity of chondrocytes [2]: decreased nuclear eccentricity; also recorded: decreases nuclear eccentricity towards young level
